Assay: recombinant UMI read abundance after kanamycin selection (control-corrected) (log10(CPM+1)); higher = more efficient recombination; extreme values may be limits of the assay; sequences stand for … in AGTGCAGAGAAAATCGGCCAGTTTTCTCTGCCTGCAGTCCGCATGCCGTGGGACCCCTTGGGTTCTAACCTGTTGCCTAGATTTATGCAGCGGACTGCCTTTCTCCCAAAGTGATAAACCGG…AGGTTGGTTTCACT; site = the 11-nt donor
How it was run: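 Values are reported as log10(CPM+1), obtained by converting sequencing counts to CPM, averaging replicates and scaling by control-derived factors. The counts came from recombinant UMIs amplified by PCR across the donor–target junction. These UMIs came from a pooled Escherichia coli screen of donor and donor-binding-loop pairs for the IS621 bridge recombinase, plated with IPTG (0.07 mM) plus kanamycin or left unselected, in two replicates each.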
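Note: IS621 bridge recombinase in Escherichia coli cells against a fixed T5 target plasmid.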

Sequence | recombinant UMI read abundance (log10)
TAAACTCCATGGACCGGTTTTCCCGGTAATCCGTATTTGTA (site TAAAATCCTTA) | 0.534
TAAACTCCATGGACCGGTTTTCCCGGTAATCCGTATTTGTA (site TAAACTCCTTA) | 1.32
TAAACTCCATGGACCGGTTTTCCCGGTAATCCGTATTTGTA (site TAAAGTCCTTA) | 0.221
TAAACTCCATGGACCGGTTTTCCCGGTAATCCGTATTTGTA (site TAAATTCCTTA) | 0
TAAAGTCCATGGACCGGTTTTCCCGGTAATCCGTATTTGTA (site AAAAGTCCTTA) | 2.17
TAAAGTCCATGGACCGGTTTTCCCGGTAATCCGTATTTGTA (site CAAAGTCCTTA) | 0.47
TAAAGTCCATGGACCGGTTTTCCCGGTAATCCGTATTTGTA (site GAAAGTCCTTA) | 0.00467
TAAAGTCCATGGACCGGTTTTCCCGGTAATCCGTATTTGTA (site TAAAATCCTTA) | 0
TAAAGTCCATGGACCGGTTTTCCCGGTAATCCGTATTTGTA (site TAAACTCCTTA) | 0.531
TAAAGTCCATGGACCGGTTTTCCCGGTAATCCGTATTTGTA (site TAAAGACCTTA) | 0.00959
TAAAGTCCATGGACCGGTTTTCCCGGTAATCCGTATTTGTA (site TAAAGCCCTTA) | 0.452
TAAAGTCCATGGACCGGTTTTCCCGGTAATCCGTATTTGTA (site TAAAGGCCTTA) | 0.00572
TAAAGTCCATGGACCGGTTTTCCCGGTAATCCGTATTTGTA (site TAAAGTACTTA) | 0.459
TAAAGTCCATGGACCGGTTTTCCCGGTAATCCGTATTTGTA (site TAAAGTCCTAA) | 0.0143
TAAAGTCCATGGACCGGTTTTCCCGGTAATCCGTATTTGTA (site TAAAGTCCTCA) | 0.00255
TAAAGTCCATGGACCGGTTTTCCCGGTAATCCGTATTTGTA (site TAAAGTCCTGA) | 0
TAAAGTCCATGGACCGGTTTTCCCGGTAATCCGTATTTGTA (site TAAAGTCCTTA) | 0.722
TAAAGTCCATGGACCGGTTTTCCCGGTAATCCGTATTTGTA (site TAAAGTCCTTC) | 0.00609
TAAAGTCCATGGACCGGTTTTCCCGGTAATCCGTATTTGTA (site TAAAGTCCTTG) | 0.00546
TAAAGTCCATGGACCGGTTTTCCCGGTAATCCGTATTTGTA (site TAAAGTCCTTT) | 0.0573
TAAAGTCCATGGACCGGTTTTCCCGGTAATCCGTATTTGTA (site TAAAGTGCTTA) | 0.00484
TAAAGTCCATGGACCGGTTTTCCCGGTAATCCGTATTTGTA (site TAAAGTTCTTA) | 0.0051
TAAAGTCCATGGACCGGTTTTCCCGGTAATCCGTATTTGTA (site TAAATTCCTTA) | 0.812

Sequence | recombinant UMI read abundance (log10)
TAAAGTCCATGGACCGGTTTTCCCGGTAATCCGTATTTGTA (site TAACGTCCTTA) | 0.243
TAAAGTCCATGGACCGGTTTTCCCGGTAATCCGTATTTGTA (site TAAGGTCCTTA) | 0.198
TAAAGTCCATGGACCGGTTTTCCCGGTAATCCGTATTTGTA (site TAATGTCCTTA) | 0.0108
TAAAGTCCATGGACCGGTTTTCCCGGTAATCCGTATTTGTA (site TACAGTCCTTA) | 0
TAAAGTCCATGGACCGGTTTTCCCGGTAATCCGTATTTGTA (site TAGAGTCCTTA) | 0.358
TAAAGTCCATGGACCGGTTTTCCCGGTAATCCGTATTTGTA (site TATAGTCCTTA) | 0.0492
TAAAGTCCATGGACCGGTTTTCCCGGTAATCCGTATTTGTA (site TCAAGTCCTTA) | 0.0268
TAAAGTCCATGGACCGGTTTTCCCGGTAATCCGTATTTGTA (site TGAAGTCCTTA) | 0.00382
TAAAGTCCATGGACCGGTTTTCCCGGTAATCCGTATTTGTA (site TTAAGTCCTTA) | 0.671
TAAAGTGCATGGACCGGTTTTCCCGGTAATCCGTATTTGTA (site TAAAGTACTTA) | 1.36
TAAAGTGCATGGACCGGTTTTCCCGGTAATCCGTATTTGTA (site TAAAGTCCTTA) | 0.72
TAAAGTGCATGGACCGGTTTTCCCGGTAATCCGTATTTGTA (site TAAAGTGCTTA) | 2.22
TAAAGTGCATGGACCGGTTTTCCCGGTAATCCGTATTTGTA (site TAAAGTTCTTA) | 0
TAAATGACATGGACCGGTTTTCCCGGTAATCCGTATTTGGA (site TAAATGACTTC) | 1.23
TAAATTCCATGGACCGGTTTTCCCGGTAATCCGTATTTGGG (site TAAATTCCTCC) | 0
TAAATTCCATGGACCGGTTTTCCCGGTAATCCGTATTTGTA (site TAAAATCCTTA) | 0.00321
TAAATTCCATGGACCGGTTTTCCCGGTAATCCGTATTTGTA (site TAAACTCCTTA) | 0.00609
TAAATTCCATGGACCGGTTTTCCCGGTAATCCGTATTTGTA (site TAAAGTCCTTA) | 0.471
TAAATTCCATGGACCGGTTTTCCCGGTAATCCGTATTTGTA (site TAAATTCCTTA) | 0.558
TAACAGGCATGGACCGGTTTTCCCGGTAATCCGTATTTGTT (site TAACAGGCTAA) | 1.1
TAACCACCATGGACCGGTTTTCCCGGTAATCCGTATTTGAT (site TAACCACCTAT) | 0.0138
TAACCCGCATGGACCGGTTTTCCCGGTAATCCGTATTTGTG (site TAACCCGCTCA) | 0.00831
TAACGTCCATGGACCGGTTTTCCCGGTAATCCGTATTTGTA (site TAAAGTCCTTA) | 0.571

Sequence | recombinant UMI read abundance (log10)
TAACGTCCATGGACCGGTTTTCCCGGTAATCCGTATTTGTA (site TAACGTCCTTA) | 0.935
TAACGTCCATGGACCGGTTTTCCCGGTAATCCGTATTTGTA (site TAAGGTCCTTA) | 0.0133
TAACGTCCATGGACCGGTTTTCCCGGTAATCCGTATTTGTA (site TAATGTCCTTA) | 0.00898
TAAGACACATGGACCGGTTTTCCCGGTAATCCGTATTTGTT (site TAAGACACTAA) | 1.94
TAAGAGACATGGACCGGTTTTCCCGGTAATCCGTATTTGCG (site TAAGAGACTCG) | 2.41
TAAGAGACATGGACCGGTTTTCCCGGTAATCCGTATTTGCG (site TCAGAGACTCG) | 0.896
TAAGAGACATGGACCGGTTTTCCCGGTAATCCGTATTTGCG (site TGAGAGACTCG) | 0.483
TAAGAGACATGGACCGGTTTTCCCGGTAATCCGTATTTGCG (site TTAGAGACTCG) | 1.14
TAAGATACATGGACCGGTTTTCCCGGTAATCCGTATTTGCT (site TAAGATACTAG) | 2.11
TAAGATGCATGGACCGGTTTTCCCGGTAATCCGTATTTGGG (site ATCCTCTCTGG) | 0
TAAGGAGCATGGACCGGTTTTCCCGGTAATCCGTATTTGGG (site TAAAGAGCTCC) | 0.628
TAAGGAGCATGGACCGGTTTTCCCGGTAATCCGTATTTGGG (site TAACGAGCTCC) | 0
TAAGGAGCATGGACCGGTTTTCCCGGTAATCCGTATTTGGG (site TAAGGAGCTCC) | 0.164
TAAGGAGCATGGACCGGTTTTCCCGGTAATCCGTATTTGGG (site TAATGAGCTCC) | 0.0199
TAAGTCACATGGACCGGTTTTCCCGGTAATCCGTATTTGAC (site TAAGTCACTGT) | 2.35
TAAGTTTCATGGACCGGTTTTCCCGGTAATCCGTATTTGGA (site TAAGTTTCTTC) | 2.13
TAATAAGCATGGACCGGTTTTCCCGGTAATCCGTATTTGGG (site TAATAAGCTCC) | 0.013
TAATAAGCATGGACCGGTTTTCCCGGTAATCCGTATTTGGG (site TAATCAGCTCC) | 0.012
TAATAAGCATGGACCGGTTTTCCCGGTAATCCGTATTTGGG (site TAATGAGCTCC) | 0.00879
TAATAAGCATGGACCGGTTTTCCCGGTAATCCGTATTTGGG (site TAATTAGCTCC) | 0.507
TAATCAGCATGGACCGGTTTTCCCGGTAATCCGTATTTGTC (site TAATCAGCTGA) | 1.93
TAATGAGCATGGACCGGTTTTCCCGGTAATCCGTATTTGAG (site TAATGAGCTCA) | 0.196
